Converted amounts (≈) assume the structure as drawn. Read-outs that look alike come from different tables or passages of the source.
Assays:
[1] = target: T1, ovine COX-1 (oCOX-1) (Ovis aries, UniProt P05979); assay: LCMS-based COX-1 enzymatic inhibition assay (PGE2 quantification); assay type: biochemical; conditions: for COX1 10 minutes pge2/pge2d4 area ratio Avg. LLE / COX1 10 minutes pge2 area (counts) Avg. LLE: average LLE
T1 construct: purchased Cayman Chemicals (Ann Arbor, Mich.)
T1 sequence (P05979 25-600): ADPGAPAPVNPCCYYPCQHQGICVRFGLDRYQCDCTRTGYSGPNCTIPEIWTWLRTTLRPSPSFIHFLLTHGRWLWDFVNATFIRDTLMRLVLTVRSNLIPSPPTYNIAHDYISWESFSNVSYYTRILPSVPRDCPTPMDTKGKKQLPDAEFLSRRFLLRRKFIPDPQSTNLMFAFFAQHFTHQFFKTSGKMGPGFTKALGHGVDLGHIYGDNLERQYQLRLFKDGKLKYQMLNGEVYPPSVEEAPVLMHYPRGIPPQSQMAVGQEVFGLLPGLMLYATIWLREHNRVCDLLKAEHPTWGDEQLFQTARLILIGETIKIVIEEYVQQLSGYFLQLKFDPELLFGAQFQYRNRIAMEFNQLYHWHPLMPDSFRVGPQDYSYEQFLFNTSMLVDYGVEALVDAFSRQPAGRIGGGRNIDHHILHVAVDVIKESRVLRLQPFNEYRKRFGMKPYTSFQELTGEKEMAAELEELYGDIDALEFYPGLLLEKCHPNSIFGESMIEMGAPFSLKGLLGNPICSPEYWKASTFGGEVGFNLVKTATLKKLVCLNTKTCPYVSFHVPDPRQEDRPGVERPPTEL
Outline: (§1)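 Ovine COX-1 (0.1 μg) or human recombinant COX2 (0.2 μg) in 100 mM Tris.HCl pH 8.0 with hematin and epinephrine, preincubated with inhibitor 10 min at 37 °C. Reaction with 5 μM arachidonic acid stopped after 2 min with HCl; PGE2 quantified by LC-MS-MS. IC50 from 12 concentrations in triplicate.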

[2] = mouse plasma protein binding (PPB) assay; assay type: in vitro ADME; conditions: average, read-out: Mouse Plasma Protein Binding % Bound Avg (converted)
Method: (§2) We have adapted a previously reported cyclooxygenase enzymatic assay utilizing LCMS quantification of PGE2 as the product of COX-1 and COX2 catalyzed conversion of arachidonic acid to evaluate the binding properties of newly synthesized ligands [Cao, 2011]. These optimized and miniaturized (384-well plates) LCMS-based COX-1 and COX2 enzymatic assays enabled us to quickly evaluate newly synthesized ligands for COX2 binding affinity and selectivity vs COX-1. Using a shorter ligand-enzyme incubation time in the LCMS assay (2 minutes vs 10 minutes) also permitted us to prioritize ligands with faster binding kinetics. Considering the relatively slow on-rate kinetics of known coxibs, due to their 3-step binding mechanism [Marnett, 2009], we believe that optimizing this critical parameter will be key to the successful development of a COX2 PET tracer. Using these enzymatic assays, we have evaluated>200 newly synthesized ligands against COX2 and >20 ligands against COX-1. Another critical property necessary for a good PET radiotracer is to have low non-specific binding (NSB) to increase the free fraction and maximize the signal to noise ratio. This property can be evaluated using in-vitro protein binding assays, and we have now evaluated>50 newly synthesized ligands in mouse, rat and human plasma protein binding (PPB) assays as well as >15 ligands in a mouse brain protein binding (BPB) assay.

[3] = Mouse Plasma Protein Stability (% Remaining); assay type: in vitro ADME; conditions: average
[4] = target: T2, human recombinant COX2 (hCOX2) (UniProt P35354); assay: LCMS-based COX2 enzymatic inhibition assay (PGE2 quantification); assay type: biochemical; set-up: COX2 2 minutes pge2/pge2d4 area ratio Avg; other: 2 minutes; readout pge2/pge2d4 area ratio; average; COX2 2 minutes pge2/pge2d4 area ratio Avg; LLE; average LLE; COX2 2 minutes pge2 area (counts) Avg; readout pge2 area (counts); other: 2 min; "ovine COX2 (oCOX2), human recombinant COX2 (hCOX2)"; conditions: for COX2 2 minutes pge2/pge2d4 area ratio Avg. LLE / COX2 2 minutes pge2 area (counts) Avg. LLE / COX2 10 minutes pge2 area (counts) Avg. LLE: average LLE; for IC50: average
T2 sequence (P35354 1-604): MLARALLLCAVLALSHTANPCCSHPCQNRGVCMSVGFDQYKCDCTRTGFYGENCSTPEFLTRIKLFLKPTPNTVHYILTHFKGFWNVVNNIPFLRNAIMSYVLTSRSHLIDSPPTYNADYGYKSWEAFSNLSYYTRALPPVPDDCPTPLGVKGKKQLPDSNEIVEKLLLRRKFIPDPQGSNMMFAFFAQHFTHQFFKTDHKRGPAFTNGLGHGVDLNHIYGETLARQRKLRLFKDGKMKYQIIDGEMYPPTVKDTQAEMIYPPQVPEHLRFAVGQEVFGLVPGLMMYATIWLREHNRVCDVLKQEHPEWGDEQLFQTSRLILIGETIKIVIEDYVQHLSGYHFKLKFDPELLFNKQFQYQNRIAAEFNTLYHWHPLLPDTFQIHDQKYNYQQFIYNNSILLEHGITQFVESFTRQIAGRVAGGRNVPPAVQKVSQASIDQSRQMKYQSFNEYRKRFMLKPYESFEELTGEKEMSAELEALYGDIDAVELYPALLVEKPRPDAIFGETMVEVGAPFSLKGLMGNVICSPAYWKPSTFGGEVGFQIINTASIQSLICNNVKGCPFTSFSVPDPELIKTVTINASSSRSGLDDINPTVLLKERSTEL
Outline: as §1

[5] = PBS Solubility (no DMSO); assay type: physicochemical; conditions: aqueous buffer, thermodynamic from solid, average
[6] = rat plasma protein binding (PPB) assay; assay type: in vitro ADME; conditions: average, read-out: Rat Plasma Protein Binding % Bound Avg (converted)
Method: as §2

[7] = Rat Plasma Protein Stability (% Remaining); assay type: in vitro ADME; conditions: average
[8] = Human Microsome Stability; assay type: in vitro ADME; conditions: human microsomes
[9] = 10 minutes, readout pge2/pge2d4 area ratio
[10] = 10 minutes, readout pge2/pge2d4 area ratio, average, read-out: COX1 10 minutes pge2/pge2d4 area ratio Avg. IC50
[11] = 10 minutes, readout pge2 area (counts)
[12] = 10 minutes, readout pge2 area (counts), average, read-out: COX1 10 minutes pge2 area (counts) Avg. IC50
[13] = 2 minutes, readout pge2/pge2d4 area ratio
[14] = 2 minutes, readout pge2/pge2d4 area ratio, read-out: COX2 2 minutes pge2/pge2d4 area ratio Avg. IC50
[15] = 2 minutes, readout pge2 area (counts)
[16] = 2 minutes, readout pge2 area (counts), read-out: COX2 2 minutes pge2 area (counts) Avg. IC50
[17] = 10 minutes, readout pge2 area (counts), read-out: COX2 10 minutes pge2 area (counts) Avg. IC50

| SMILES | COX1 10 minutes pge2/pge2d4 area ratio Avg. LLE [1, 9] | IC50 [1, 10] [nM] | COX1 10 minutes pge2 area (counts) Avg. LLE [1, 11] | IC50 [1, 12] [nM] | fraction unbound [2] | Mouse Plasma Protein Stability % Remaining Avg [3] [%] | COX2 2 minutes pge2/pge2d4 area ratio Avg. LLE [4, 13] | IC50 [4, 14] [nM] | COX2 2 minutes pge2 area (counts) Avg. LLE [4, 15] | IC50 [4, 16] [nM] | solubility [5] [µM] | IC50 [1] [nM] | fraction unbound [6] | Rat Plasma Protein Stability % Remaining Avg [7] [%] | Human Microsome Stability % Remaining Avg [8] [%] | COX2 10 minutes pge2 area (counts) Avg. LLE [4, 11] | IC50 [4, 17] [nM] |
| --- | --- | --- | --- | --- | --- | --- | --- | --- | --- | --- | --- | --- | --- | --- | --- | --- | --- |
| C[C@H](Oc1cncc(-c2ccc(S(C)(=O)=O)cc2)n1)c1cccs1 (single isomer, unassigned) [Compound 53] | 2.125 | 8610 | 2.0112 | 11700 | 0.001 | 36.7 | 4.852 | 25 | 4.799 | 27.6 |  |  |  |  |  |  |  |
| NS(=O)(=O)c1ccc(-c2cncc(OCc3cccs3)n2)cc1 [Compound 3] | 4.28 | 1100 | 4.323 | 913 | 0.015 | 94.9 | 6.484 | 5.55 | 6.512 | 5.38 | 8.5 (≈ 2.95 µg/mL) |  |  |  |  |  |  |
| Cc1ccsc1CNc1cccc(-c2ccc(S(C)(=O)=O)cc2)n1 [Compound 7] | 0.564 |  | 0.564 |  | 0.015 | 97.8 | 4.522 | 6.36 | 4.509 | 7.11 |  | 52000 |  |  |  |  |  |
| COc1ncc(OCc2cccs2)nc1-c1ccc(S(C)(=O)=O)cc1 [Compound 8] |  |  |  |  |  | 92.8 | 5.399 | 6.59 | 5.446 | 7.15 |  |  |  |  |  |  |  |
| CS(=O)(=O)c1ccc(-c2cncc(SCc3ccoc3)n2)cc1 [Compound 12] | 1.784 | 38500 | 1.801 | 37700 |  |  | 5.445 | 8.44 | 5.417 | 9.78 | 7.4 (≈ 2.56 µg/mL) |  | 0.006 | 95 |  |  |  |
| CS(=O)(=O)c1ccc(-c2cncc(SCc3cccs3)n2)cc1 [Compound 18] | 2.392 | 3140 | 2.308 | 4430 | 0.002 | 103.7 | 4.93 | 9.99 | 5.018 | 8.22 |  |  |  |  |  |  |  |
| CCOc1ncc(NCc2cccs2)nc1-c1ccc(S(C)(=O)=O)cc1 [Compound 25] | 1.374 |  | 1.374 |  | 0.015 | 93.1 | 5.041 | 11.8 | 4.857 | 19.6 |  | 52000 |  |  |  |  |  |
| CS(=O)(=O)c1ccc(-c2ccc3ccn(Cc4ccoc4)c3n2)cc1 [Compound 26] | 0.9493 | 11400 | 0.6431 | 16700 | 0.018 | 97.5 | 3.778 | 12 | 3.652 | 16.6 |  |  |  |  | 43 |  |  |
| COc1cc(NCc2cccs2)cc(-c2ccc(S(C)(=O)=O)cc2)n1 [Compound 32] |  |  |  |  | 0.015 | 100.9 | 4.433 | 15.5 | 4.493 | 14 |  |  |  |  |  | 5.338 | 2.5 |
| CN(Cc1cccs1)c1cncc(-c2ccc(S(C)(=O)=O)cc2)n1 [Compound 51] | 3.094 | 2930 | 3.234 | 2230 | 0.015 | 109.5 | 5.185 | 23.9 | 5.211 | 23.2 |  |  |  |  |  | 6.088 | 3.57 |

Source: patent publication US20220348590A1, “CYCLOOXYGENASE-2 INHIBITORS AND USES THEREOF” (The Board Institute, Inc., priority 2019, published 2022)
